Test results published in patent publication US9593305B2, “Differentiation of pluripotent stem cells” (Janssen Biotech, Inc., priority 2008, dated 2017).

System: H1 human embryonic stem cells
Experiment: Step-wise differentiation, high content analysis of SOX17, PDX1, CDX2, insulin, glucagon (Example 12)
Assay type: cell-based
Experimental: The assay was initiated by aspirating the culture medium from each well and adding back an aliquot (0.5 ml) of test medium. Test conditions for the first step of differentiation were conducted over a three-day period, feeding daily by aspirating and replacing the medium from each well with fresh test medium. On the first day of assay, 100 ng/ml activin A (PeproTech; Cat #120-14) or 200 ng/ml GDF-8 (R&D Systems, Cat #788-G8) was added to respective assay wells where each growth factor was diluted into RPMI-1640 medium (Invitrogen; Cat #22400) with 1% Albumin Bovine Fraction V, Fatty Acid Free (FAF BSA) (MP Biomedicals, Inc; Cat 152401), 1% Probumin (Millipore; Cat #81-068-3) and 20 ng/ml Wnt3a (R&D Systems; Cat #1324-WN/CF). On the second day of assay, 100 ng/ml activin A or 200 ng/ml GDF-8 was diluted into RPMI-1640 medium supplemented with 2% FAF BSA without Wnt3a. In some test samples using GDF-8, Wnt3a was replaced with a either Compound 34 or Compound 56 at a concentration of 2.5 μM, and either Compound 34 or Compound 56 was added daily during all three days of definitive endoderm differentiation. At the conclusion of the first step of differentiation, cells from some wells were harvested for flow cytometry analysis to evaluate levels of CXCR4, a marker of definitive endoderm formation. […]

Q: Which results are given for “GDF-8: growth factor GDF-8, also known as myostatin, member of the TGF-β family”?
A: normalized protein levels of insulin and glucagon after step 5 (GDF-8 versus activin A treatment groups in step 1): equivalent expression between the Activin A and GDF-8 treatment groups; normalized Pdx1 and Cdx2 protein expression after step 3 (GDF-8 with Wnt3a or with a compound in step 1): equivalent levels of PDX1 and CDX2
